Measured values published in patent US9931351B2, “Method for improving leptin resistance” (Kyoto University, priority 2013, dated 2018).

Columns and labels:
Assay type in all cases: in vivo
[1] = tested on: transgenic mice overexpressing leptin (LepTg) under the high fat diet condition; test: Test Example 1: effects to improve metabolism in transgenic mice overexpressing leptin under a high fat diet condition; settings: 60% high fat diet, 50 mg/kg/day intraperitoneal once a day, four weeks; for weight of the adipose tissues: epididymal
Experimental: Eight-week old male wild type mice and transgenic mice overexpressing leptin (LepTg) (Ogawa et al. Diabetes 48: 1822-1829, 1999, prepared in Department of Endocrinology and Metabolism, Kyoto University) were divided into three treatment groups, respectively: “standard diet (SD)+vehicle (V)”, “60% high fat diet (HFD)+vehicle”, and “60% high fat diet+Compound 57”. The mice were kept for four weeks with ad libitum feeding, and the body weight and the food intake of the mice were measured. The vehicle and Compound 57 were administered to the mice by intraperitoneal injection once a day. The dosage of Compound 57 was 50 mg/kg/day. After the four weeks the mice were sacrificed and blood, epididymal adipose tissues, and the liver were collected. The weight of the adipose tissues, the liver weight, the liver triglyceride levels, and the plasma levels of glucose, insulin, total cholesterol (T-chol), triglyceride (TG), and nonesterified fatty acid (NEFA) were measured (n=5 for each group). The equivalent dosage of Compound 32 was tested in a similar manner (n=5 for each group).

[2] = tested on: wild type rats having diet-induced obesity; test: Test Example 8: effects to improve metabolism in rats having diet-induced obesity caused by a high fat diet; settings: wild type rats obese after four-week high fat diet, continued high fat diet, 20 mg/kg/day intraperitoneal once a day, further four weeks; for weight of the adipose tissues: epididymal
Experimental: Eight-week old male wild type rats were divided into two groups (n =5 and 15) and kept for four weeks under a standard diet (SD) or a high fat diet (HFD) condition. All the rats fed with the standard diet for the four weeks were assigned to the group “vehicle (V)” and fed with the standard diet for further four weeks, and then the body weight of the rats was measured. The rats fed with the high fat diet for the four weeks were divided into three groups: “vehicle”, “Compound 57”, and “Compound 32”, and fed with the high fat diet for further four weeks, and then the body weight of the rats was measured. The vehicle, Compound 57, and Compound 32 were administered to the rats by intraperitoneal injection once a day. The each dosage of Compounds 57 and 32 was 20 mg/kg/day. Finally the rats were sacrificed, blood, epididymal adipose tissues, and the liver were collected, and the weight of the adipose tissues, the liver weight, and the plasma levels of glucose, insulin, total cholesterol, triglyceride, and nonesterified fatty acid were measured (n =5 for each group).

Seipin KO rats = test: Test Example 7: effects to improve metabolism in Seipin KO rats, a model of generalized lipodystrophy; settings: standard diet, 20 mg/kg/day intraperitoneal once a day, four weeks
Experimental: Seipin KO rats have a mutation in the Seipin gene, the causative gene of human generalized lipodystrophy, and are used as a model of generalized lipodystrophy. The rats have substantially no white adipocyte and thus cannot produce leptin. The rats were prepared in Department of Endocrinology and Metabolism, Kyoto University. Eight-week old male Seipin KO rats were divided into three treatment groups: “Vehicle (V)”, “Compound 57”, and “Compound 32”. The rats were kept for four weeks with ad libitum feeding of standard diet, and the body weight of the rats were measured. The vehicle, Compound 57, and Compound 32 were administered to the rats by intraperitoneal injection once a day. The each dosage of Compounds 57 and 32 was 20 mg/kg/day. After the four weeks the rats were sacrificed, blood was collected, and the plasma levels of glucose and insulin were measured (n=3 for each group).

[3] = tested on: wild type mice having diet-induced obesity; test: Test Example 4: effects to improve metabolism in wild type mice having diet-induced obesity caused by a high fat diet; settings: wild type mice obese after four-week high fat diet, continued high fat diet, 50 mg/kg/day intraperitoneal once a day, further four weeks
Experimental: (§1) Eight-week old male wild type mice and transgenic mice overexpressing leptin (LepTg) (see Test Example 1) were divided into two groups, respectively (n=4 and 12), and kept for four weeks under a standard diet (SD) or a high fat diet (HFD) condition. All the mice fed with the standard diet for the four weeks were assigned to the group “vehicle (V)” and fed with the standard diet for further four weeks, and then the body weight and the food intake of the mice were measured. The mice fed with the high fat diet for the four weeks were divided into three groups: “vehicle (V)”, “Compound 57”, and “Compound 32”, and fed with the high fat diet for further four weeks, and then the body weight and the food intake of the mice were measured. The vehicle, Compound 57, and Compound 32 were administered to the mice by intraperitoneal injection once a day. The each dosage of Compounds 57 and 32 was 50 mg/kg/day. Finally the mice were sacrificed and blood, epididymal adipose tissues, and the liver were collected. The weight of the adipose tissues, the liver weight, and the plasma levels of glucose and triglyceride were measured (n=4 for each group).

[4] = tested on: leptin-deficient Lepmkyo/Lepmkyo rats; test: Test Example 6: effects to improve metabolism in leptin-deficient Lepmkyo/Lepmkyo rats; settings: standard diet, 20 mg/kg/day intraperitoneal once a day, four weeks; for body weight: versus vehicle
Experimental: Lepmkyo/Lepmkyo rats cannot produce leptin due to a mutation in the leptin gene (Aizawa-Abe et al. Physiol Genomics 45: 786-793, 2013, prepared in Institute of Laboratory Animals, Graduate School of Medicine, Kyoto University). Eight-week old male Lepmkyo/Lepmkyo rats were divided into three treatment groups: “Vehicle (V)”, “Compound 57”, and “Compound 32”. The rats were kept for four weeks with ad libitum feeding of standard diet, and the body weight of the rats were measured. The vehicle, Compound 57, and Compound 32 were administered to the rats by intraperitoneal injection once a day. The each dosage of Compounds 57 and 32 was 20 mg/kg/day. After the four weeks the rats were sacrificed, blood was collected, and the plasma levels of glucose and insulin were measured (n =5 for each group).

[5] = tested on: transgenic mice overexpressing leptin (LepTg) having diet-induced obesity; test: Test Example 4: effects to improve metabolism in LepTg mice having diet-induced obesity caused by a high fat diet; settings: LepTg mice obese after four-week high fat diet, continued high fat diet, 50 mg/kg/day intraperitoneal once a day, further four weeks; for weight of the adipose tissues: epididymal
Experimental: as §1

[6] = tested on: wild type rats under the high fat diet condition; test: Test Example 5: effects to improve metabolism in wild type rats under a high fat diet condition; settings: 60% high fat diet, 20 mg/kg/day intraperitoneal once a day, four weeks
Experimental: Eight-week old male wild type rats were divided into four treatment groups: “standard diet (SD)+vehicle (V)”, “60% high fat diet (HFD)+vehicle”, “60% high fat diet+Compound 57”, and “60% high fat diet+Compound 32”. The rats were kept for four weeks with ad libitum feeding, and the body weight of the rats was measured. The vehicle, Compound 32 and Compound 57 were administered to the rats by intraperitoneal injection once a day. The each dosage of Compounds 32 and 57 was 20 mg/kg/day. After the four weeks the rats were sacrificed, blood was collected, and the plasma levels of glucose and insulin were measured (n=5 for each group).

Nc1c(/N=N/c2ccc(-c3cccc4c3sc3ccccc34)nc2)cc(S(=O)(=O)[O-])c2ccccc12.[Na+] [Compound 57, 4-amino-3-(6-dibenzothiophene-4-ylpyridine-3-ylazo)naphthalene-1-sulfonic acid sodium salt]
body weight [1]: did not increase | food intake [1]: did not increase | liver triglyceride levels [1]: did not increase | liver weight [1]: did not increase | plasma insulin levels [1]: did not increase | plasma level of nonesterified fatty acid [1]: did not increase | plasma level of total cholesterol [1]: did not increase | plasma level of triglyceride [1]: did not increase | random plasma glucose levels [1]: did not increase | weight of the adipose tissues [1]: did not increase | body weight [2]: decreased | plasma level of glucose [2]: decreased | plasma level of insulin [2]: decreased | plasma level of nonesterified fatty acid [2]: decreased | plasma level of total cholesterol [2]: decreased | plasma level of triglyceride [2]: decreased | weight of the adipose tissues [2]: decreased | body weight (Seipin KO rats): did not change | plasma insulin (Seipin KO rats): did not change | random plasma glucose levels (Seipin KO rats): did not change | blood level of glucose [3]: decreased | blood level of triglyceride [3]: decreased | body weight [3]: decreased | food intake [3]: significantly decreased | plasma insulin [4]: did not change | random plasma glucose levels [4]: did not change | body weight [4]: No difference | blood level of glucose [5]: decreased | blood level of triglyceride [5]: decreased | body weight [5]: decreased | food intake [5]: significantly decreased | liver weight [5]: decreased | weight of the adipose tissues [5]: significantly decreased | plasma insulin levels [6]: did not increase | random plasma glucose levels [6]: did not increase | weight gain caused by the high fat diet [6]: not observed

Cc1cc(F)ccc1-c1ccc(/N=N/c2cc(S(=O)(=O)[O-])c3ccccc3c2N)cn1.[Na+] [Compound 32, 4-amino-3-[6-(4-fluoro-2-methylphenyl)pyridine-3-ylazo]naphthalene-1-sulfonic acid sodium salt]
body weight [1]: did not increase | food intake [1]: did not increase | liver triglyceride levels [1]: did not increase | liver weight [1]: did not increase | plasma insulin levels [1]: did not increase | plasma level of nonesterified fatty acid [1]: did not increase | plasma level of total cholesterol [1]: did not increase | plasma level of triglyceride [1]: did not increase | random plasma glucose levels [1]: did not increase | weight of the adipose tissues [1]: did not increase | body weight [2]: decreased | plasma level of glucose [2]: decreased | plasma level of insulin [2]: decreased | plasma level of nonesterified fatty acid [2]: decreased | plasma level of total cholesterol [2]: decreased | plasma level of triglyceride [2]: decreased | weight of the adipose tissues [2]: decreased | body weight (Seipin KO rats): did not change | plasma insulin (Seipin KO rats): did not change | random plasma glucose levels (Seipin KO rats): did not change | blood level of glucose [3]: decreased | blood level of triglyceride [3]: decreased | body weight [3]: decreased | plasma insulin [4]: did not change | random plasma glucose levels [4]: did not change | body weight [4]: No difference | blood level of glucose [5]: decreased | blood level of triglyceride [5]: decreased | body weight [5]: decreased | food intake [5]: significantly decreased | weight of the adipose tissues [5]: significantly decreased | plasma insulin levels [6]: did not increase | random plasma glucose levels [6]: did not increase | weight gain caused by the high fat diet [6]: not observed
